In patent US10988523B2, “Modified lipidated Relaxin B chain peptides and their therapeutic use” (Sanofi, priority 2018, dated 2021):
*1 amine or outer side, *2 acyl side, *3 side chain or, on linkers, in order; H or OH if unused. Where a SMILES comes first, the peptide text is derived from it. Side-chain parts run from the residue outwards. [ ]: non-standard residue; d: D form. The star is where a group is joined. γGlu = O=C(O)[C@H](CCC(=O)[*:2])N[*:1]; Stearoyl = CCCCCCCCCCCCCCCCCC(=O)*; Palmitoyl = CCCCCCCCCCCCCCCC(=O)*; Nle = CCCC[C@H](N)C(=O)O; AEEA = NCCOCCOCC(=O)O; Aib = CC(C)(N)C(=O)O

Key:
RXFP1 = target: T1, RXFP1 (Homo sapiens, UniProt Q9HBX9); assay: OVCAR5 cAMP assay (HTRF), RXFP1 agonist activity; assay type: cell-based; settings: for EC50: OVCAR5 cells, cAMP HTRF, read-out: EC50 (nM), OVCAR 5 cells (cAMP); for Emax: OVCAR-5, maximal cAMP relative to H2-relaxin maximum (100%), read-out: EMax, OVCAR 5 cells (cAMP)
T1 construct: OVCAR5 cells expressing endogenous RXFP1; endogenous in cells; host or cells: OVCAR5 cells
T1 sequence (Q9HBX9 1-757): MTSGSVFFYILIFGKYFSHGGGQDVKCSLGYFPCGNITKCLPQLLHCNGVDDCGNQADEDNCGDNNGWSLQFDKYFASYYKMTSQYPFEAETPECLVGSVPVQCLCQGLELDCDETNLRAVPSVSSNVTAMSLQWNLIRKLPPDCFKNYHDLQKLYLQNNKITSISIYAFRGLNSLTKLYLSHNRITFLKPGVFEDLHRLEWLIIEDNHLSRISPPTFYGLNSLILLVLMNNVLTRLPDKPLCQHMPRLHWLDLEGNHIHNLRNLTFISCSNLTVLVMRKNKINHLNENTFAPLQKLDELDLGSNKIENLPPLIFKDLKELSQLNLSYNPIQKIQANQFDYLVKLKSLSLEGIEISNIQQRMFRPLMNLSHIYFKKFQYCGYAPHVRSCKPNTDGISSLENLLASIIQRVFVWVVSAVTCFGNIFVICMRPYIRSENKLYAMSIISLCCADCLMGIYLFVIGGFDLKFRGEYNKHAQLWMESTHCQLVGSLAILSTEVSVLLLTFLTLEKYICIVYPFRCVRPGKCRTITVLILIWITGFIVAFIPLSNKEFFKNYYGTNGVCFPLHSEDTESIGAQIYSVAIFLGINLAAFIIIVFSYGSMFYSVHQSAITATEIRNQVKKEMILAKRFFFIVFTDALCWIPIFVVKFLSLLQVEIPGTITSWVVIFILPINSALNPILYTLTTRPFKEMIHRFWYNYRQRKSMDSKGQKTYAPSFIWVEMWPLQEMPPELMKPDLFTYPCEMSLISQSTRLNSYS
In short: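 OVCAR5 cells (endogenous RXFP1) pretreated 40 min at 37° C with 1 mM IBMX, then exposed to peptides in serum-free medium for 30 min at 37° C. Lysate cAMP read by HTRF; EC50 from variable-slope sigmoidal fit; Emax as % of H2-relaxin maximal cAMP in same run.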

[1] = Stability testing of peptides in human plasma or blood; assay type: in vitro ADME; settings: 37° C.
Protocol: (§1) Prior to the testing of stability in plasma (or blood) of a peptide batch, its purity (HPLC-UV) was determined.
(§2) Rat and Human plasma: anti-coagulant sodium or lithium heparin.
(§3) Rat and Human blood: anti-coagulant sodium or lithium heparin. • Stock solution: • 100 μM solution of study compound in 50 mM Phosphate buffer pH 7.4. • 950 μL plasma (or blood) was pre-incubated for 5 min at 37° C. 50 μL of compound stock solution was added. Final compound concentration=5 μM. Vortex and transfer 1504, plasma (or blood) into an Eppendorf for each time point. The time points […] were carried out in duplicate for each species.
(§4) After incubation 150 μL, plasma (or blood) was extracted with 600 μL, Acetonitrile containing with 1% TFA. Then, vortexed and centrifuged 10 min at 14600 rpm. 200 μL supernatant was dried under N2. The sample was reconstituted in 200 μL of H2O/CH3CN 98/2+0.1% FA+50 ng/ml Labetalol and analyzed using the analytical system used in solubility and stability studies.
(§5) For determination of the amount of the remaining peptide, the peak areas of the target compound at t0 and each time point […] were compared, resulting in “% remaining peptide”, following the equation: % remaining peptide=[(peak area peptide time)×100]/peak area peptide t0. The stability is expressed as “% remaining peptide”.

[2] = Stability testing of peptides in rat plasma or blood; assay type: in vitro ADME; settings: 37° C.
Protocol: as §1, §2, §3, §4, §5

[3] = Pharmacokinetic (PK) determination after i.v. or s.c. administration to rats; assay type: in vivo, Sprague Dawley rats; settings: Sprague Dawley, Rat PK
In short: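 Sprague Dawley rats received peptide in PBS at 1 mg/kg i.v. or 3 mg/kg s.c., dose corrected for salts, solvent and purity. Plasma analysed by LC/MS after protein precipitation; non-compartmental PK, BLQ values set to zero, F% as dose-corrected s.c./i.v. AUC ratio.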

EC50 (RXFP1) [nM]	Emax (RXFP1) [%]	Human Plasma stability % remaining T = 0 ([1]; human plasma or blood, T = 0 (reference), 5 μM) [%]	remaining at 1 h, 5 µM ([1]; human plasma, 1 h, read-out: Human Plasma stability % remaining 1 h) [%]	remaining at 4 h, 5 µM ([1]; human plasma, 4 h, read-out: Human Plasma stability % remaining 4 h) [%]	Rat plasma stability % remaining T = 0 ([2]; rat plasma or blood, T = 0 (reference), 5 μM) [%]	remaining at 1 h, 5 µM ([2]; rat plasma, 1 h, read-out: Rat plasma stability % remaining 1 h) [%]	remaining at 4 h, 5 µM ([2]; rat plasma, 4 h, read-out: Rat plasma stability % remaining 4 h) [%]	C0 ([3]; iv, 1 mg/kg i.v., extrapolated plasma concentration at t=0, read-out: C0) [nM]	half-life ([3]; plasma, iv, 1 mg/kg i.v., read-out: T½ (converted)) [h]	Cmax ([3]; plasma, sc, 3 mg/kg s.c.) [nM]	Tmax ([3]; plasma, sc, 3 mg/kg s.c.) [h]	bioavailability ([3]; plasma, subcutaneous, 3 mg/kg s.c. vs 1 mg/kg i.v., dose-corrected AUC ratio) [%]	Compound
0.17	80	100	101	114	100	96	98	–	–	–	–	–	CCCCCCCCCCCCCCCC(=O)N[C@@H](CCC(=O)NCCCC[C@H](NC(=O)CC[C@H](NC(=O)CC[C@H](NC(=O)CC[C@H](NC(=O)COCCOCCNC(=O)COCCOCCNC(=O)COCCOCCNC(=O)[C@H](CCCCN)NC(=O)[C@H](CCCCN)NC(=O)[C@H](CCCNC(=N)N)NC(=O)C(C)(C)NC(=O)[C@H](CO)NC(=O)[C@H](Cc1c[nH]c2ccccc12)NC(=O)[C@@H](NC(=O)[C@H](CO)NC(=O)[C@H](CCCC)NC(=O)CNC(=O)[C@H](CCC(=O)O)NC(=O)C(C)(C)NC(=O)C(C)(C)NC(=O)[C@@H](NC(=O)[C@H](CCC(N)=O)NC(=O)[C@H](C)NC(=O)[C@H](CCCNC(=N)N)NC(=O)[C@@H](NC(=O)[C@H](CCCCN)NC(=O)[C@H](CCC(=O)O)NC(=O)[C@H](CCCNC(=N)N)NC(=O)CNC(=O)[C@H](CCC(=O)O)NC(=O)[C@H](CC(C)C)NC(C)=O)C(C)C)[C@@H](C)CC)[C@@H](C)O)C(=O)O)C(=O)O)C(=O)O)C(N)=O)C(=O)O [compound 110] (Ac-LEGREKVRAQI[Aib][Aib]EG[Nle]STWS[Aib]RKK[AEEA][AEEA][AEEA][γGlu][γGlu][γGlu]K([γGlu-Palmitoyl])-NH2)
0.16	86	–	–	–	–	–	–	1800	1.8	1000	7	39	CCCCCCCCCCCCCCCCCC(=O)N[C@@H](CCC(=O)NCCOCCOCC(=O)N[C@@H](CCC(=O)N[C@@H](CCC(=O)NCCOCCOCC(=O)NCCOCCOCC(=O)NCCCC[C@H](NC(=O)[C@H](CCCCNC(C)=O)NC(=O)[C@H](CCCCN)NC(=O)[C@H](CCCNC(=N)N)NC(=O)C(C)(C)NC(=O)[C@H](CO)NC(=O)[C@H](Cc1c[nH]c2ccccc12)NC(=O)[C@@H](NC(=O)[C@H](CO)NC(=O)[C@H](CCCC)NC(=O)CNC(=O)[C@H](CCC(=O)O)NC(=O)C(C)(C)NC(=O)C(C)(C)NC(=O)[C@@H](NC(=O)[C@H](CCCCNC(C)=O)NC(=O)[C@H](C)NC(=O)[C@H](CCCNC(=N)N)NC(=O)[C@@H](NC(=O)[C@H](CCCCN)NC(=O)[C@H](CCC(=O)O)NC(=O)[C@H](CCCNC(=N)N)NC(=O)CNC(=O)[C@H](CCC(=O)O)NC(=O)[C@H](CC(C)C)NC(C)=O)C(C)C)[C@@H](C)CC)[C@@H](C)O)C(N)=O)C(=O)O)C(=O)O)C(=O)O [compound 101] (Ac-LEGREKVRAK(Ac)I[Aib][Aib]EG[Nle]STWS[Aib]RKK(Ac)K([AEEA-AEEA-γGlu-γGlu-AEEA-γGlu-Stearoyl])-NH2)
